In US4681877A, “Pivaloyloxymethyl 7-β-[2-(2-amino-4-thiazolyl)-2-methoxyiminoacetamido]-3-(2-amino-1, 3-thiadiazolyl-5-thiomethyl)-3-cepheme-4-carboxylate and pharmaceutical composition containing the same” (Kureha Kagaku Kogyo Kabushiki Kaisha, priority 1982, dated 1987):
Read-outs that look alike come from different tables or passages of the source.

Experiments:
Lactobacillus bifidus = system: Lactobacillus bifidus; set-up: species or system Lactobacillus bifidus; female ICR mice; conditions: mouse, in vivo, po, 100 mg/kg
Method: (§1) The above-mentioned pivaloyloxymethyl ester represented by the formula(V) was orally administered for two continued days at a daily dosage of 100 mg/kg body weight to each of five female ICR mice of a group after 6 weeks of birth. Each of the two fecal specimens respectively collected before and after one day of the administration was diluted with 100 times by weight of an anaerobic diluent(a phosphoric buffer solution) and was ground in a mortar, and 0.1 ml of the ground material was smeared on each of the following culture media for the following bacteria and the thus inoculated culture media were incubated under the following conditions. Thereafter, the number of the following bacteria was determined on each culture medium.

Bacterioides sp. = system: Bacterioides sp.; set-up: species or system Bacterioides sp.; female ICR mice; conditions: mouse, in vivo, po, 100 mg/kg
Method: as §1

E. coli IFO 12734 = assay: Minimum growth-inhibition concentration (MIC), E. coli IFO 12734; assay type: cell-based, Escherichia coli; conditions: Mueller-Hinton agar, 18 to 24 hours at 37° C.
Method: (§2) The minimum inhibiting concentration(MIC) of the compound represented by the formula(I) and the compound represented by the formula(V) was measured according to the standard method of Japan Society of Chemotherapy against each of the following bacterial species:
(§3) Anti-bacterial activity of the compounds respectively produced in Examples 1, 2 and 3 was determined according to the standard method of Japanese Society of Chemotherapy as follows.
(§4) Each of the following bacterial strains was inoculated in Mueller-Hinton's culture medium and cultured for 18 to 48 hours at 37° C. to obtain a standard bacterial liquid containing 10^6 cells/ml.
(§5) Separately, agar plates were prepared by adding each of the solutions of each of the compounds respectively produced in Examples, 1, 2 and 3 at predetermined concentrations in amount of one ninth by weight to Mueller-Hinton's culture medium.

[1] = system: Proteus vulgaris IAM 1025; assay: Minimum growth-inhibition concentration (MIC), Proteus vulgaris IAM 1025; assay type: cell-based; conditions: Mueller-Hinton agar, 18 to 24 hours at 37° C.
Method: as §2, §3, §4, §5

Streptococcus sp. = system: Streptococcus sp.; set-up: species or system Streptococcus sp.; female ICR mice; conditions: mouse, in vivo, po, 100 mg/kg
Method: as §1

Escherichia coli [2] = assay: Activity against Escherichia coli before and after metabolism by rat liver homogenate; assay type: cell-based
Method: The same test as above was carried on the compound represented by the formula(V). The results obtained were compared to the results of the test (1) on the compound represented by the formula(I) according to the following criterion.
Taking the diameter of the growth-inhibiting circle due to the compound represented by the formula(I) at the same concentration as 100, and the ratio of the diameter of the growth-inhibiting circle due to the compound represented by the fomula(V) to the diameter of the growth-inhibiting circle due to the compound represented by the formula(I) is represented by the percentages as follows, and the respective signs are attributed to the respective percentage.

[3] = system: Staphylococcus aureus IAM 1011; assay: Stability of the compound of formula (V): growth-inhibiting circle with/without S-9 mix; assay type: cell-based; conditions: formula (I) = 100
Method: (§6) As a metabolism-activating enzyme, a rat liver homogenate (S-9, manufactured by Oriental Yeast Co.) was used in the following composition(referred to as S-9 mix, hereinafter):
(§7) After mixing 0.1 ml of a solution of the compound to be tested with 0.9 ml of S-9 mix or 0.9 ml of 0.1 M phosphoric acid buffer solution, the mixture was subjected to shaking culture for 20 min at 37° C. to prepare a test reaction solution for use in the following experiment.
(§8) Staphylococcus aureus IAM 1011 was inoculated to Mueller-Hinton'culture medium and the inoculum was cultured for 18 hours at 37° C. and after adjusting the number of the bacterial cells to 10^8 /ml of the culture medium, 50 times by weight of the Mueller-Hinton agar culture medium were added to the cultured medium to prepare flat culture plates. After placing a penicillin-cup of 8 mm in diameter on each of the thus prepared flat culture plates, 0.1 ml of the above-mentioned test reaction solution was introduced into the penicillin cup, and after leaving the system for 2 hours at 4° C., the system was incubated for 18 hours at 37° C., and the diameter of the growth-inhibition circle around the cup on the culture plate was determined.
The same test as above was carried on the compound represented by the formula(V). […]

Escherichia coli [4] = assay: Number of bacterial cells in feces, E. coli; assay type: in vivo, Escherichia coli; female ICR mice; conditions: after 2 days oral 100 mg/kg; before: 6.4
Method: as §1

[5] = Acute mammalian toxicity (LD50, 7-day mortality); assay type: in vivo; conditions: mouse, in vivo
Method: (§9) Acute mammalian toxicity of the compound represented by the formula(I) and the compound represented by the formula(V) was investigated by orally or intraperitoneally administering a series of aqueous physiological saline solution containing each of the above-mentioned compounds to groups of ICR-JCL mice, and observing the toxic symptoms appearing on the mice including the mortality for 7 days. Then, from the cumulative mortality, LD50 values were calculated by Litchfield-Wilcoxon's graphical method.

ICR-JCL mice = assay: Acute mammalian toxicity (LD50, 7-day mortality); assay type: in vivo; conditions: autopsy after 7 days, dead and live mice
Method: as §9

[6] = system: Serratia marcescens IAM 1223; assay: Minimum growth-inhibition concentration (MIC), Serratia marcescens IAM 1223; assay type: cell-based; conditions: Mueller-Hinton agar, 18 to 24 hours at 37° C.
Method: as §2, §3, §4, §5

[7] = system: Pseudomonas aeruginosa IAM 1514; assay: Minimum growth-inhibition concentration (MIC), Pseudomonas aeruginosa IAM 1514; assay type: cell-based; conditions: Mueller-Hinton agar, 18 to 24 hours at 37° C.
Method: as §2, §3, §4, §5

E. coli W 3636 = assay: Minimum growth-inhibition concentration (MIC), E. coli W 3636; assay type: cell-based, Escherichia coli; conditions: Mueller-Hinton agar, 18 to 24 hours at 37° C.
Method: as §2, §3, §4, §5

test bacterial species = assay: Anti-bacterial activity (MIC) in general, all test species; assay type: cell-based; conditions: against the test bacterial species
Method: as §2
Escherichia coli IFO 12734
Staphylococcus aureus IAM 1011
Proteus vulgaris IAM 1025
Pseudomonas aeruginosa IAM 1514 and
Serratia marcescens IAM 1223

Escherichia coli IFO = assay: Effects on infectious disease (mice infected with Escherichia coli IFO); assay type: in vivo; conditions: orally 100 mg/kg just after and 4 hours after inoculation; 7 days
Method: After inoculating a group consisting of 20 mice with Escherichia coli IFO intraperitoneously to be infected, the compound represented by the formula(V) was orally administered to the mice just after and after 4 hours of inoculation at a dose rate of 100 mg/kg body weight, and after 7 days of the administration, the effectiveness of the compound was judged by observing the death rate of each group of mice by the infection.
In the same manner, after inoculating another group consisting of 20 mice with Escherichia coli IFO intraperitoneously to be infected, the compound represented by the formula(I) was orally administered thereto just after and after 4 hours of inoculation at the dose rate of 100 mg/kg body weight, and after 7 days of the administration, the effectiveness of the compound was judged by observing the rate of survival of the mice.

[8] = system: Staphylococcus aureus IAM 1011; assay: Minimum growth-inhibition concentration (MIC), Staphylococcus aureus IAM 1011; assay type: cell-based; conditions: Mueller-Hinton agar, 18 to 24 hours at 37° C.
Method: as §2, §3, §4, §5

Lactobacillus sp. = system: Lactobacillus sp.; set-up: species or system Lactobacillus sp.; female ICR mice; conditions: mouse, in vivo, po, 100 mg/kg
Method: as §1

Pseudomonas aeruginosa = system: Pseudomonas aeruginosa; set-up: species or system Pseudomonas aeruginosa; female ICR mice; conditions: mouse, in vivo, po, 100 mg/kg
Method: as §1

[9] = Stability to rat liver homogenate (S-9 mix): rate of maintaining the antibacterial activity; assay type: in vitro ADME; conditions: rat, s9
Method: For verifying the stability of the compound represented by the formula (I), 7-beta-[2-(2-amino-4-thiazolyl)-2-methoxyiminoacetamindo]-3-(-2-amino-1,3,4-thiadiazoyl-5-thiomethyl)-3-cepheme -4-carboxyulic acid in living body of the host, the following model experiment was carried out.
as §6, §7, §8
By applying each of the thus determined diameters of the respective growth-inhibition circles on a diagram preliminarily prepared to indicate the relationship between the diameter of the growth-inhibition circle and the concentration of the compound in the culture medium before carrying out the culture, the concentration of the compound in the culture medium in the presence of S-9 mix was obtained(referred to as C2). […]

[10] = Stability in blood of living body: serum concentration after injection; assay type: in vivo, male Wistar rats; conditions: rat, iv, caudal vein, Wistar rats, read-out: Concentration in the serum specimen
Method: A solution of sodium salt (the product in Example 2) of the compound represented by the formula(I) in an aqueous physiological solution was injected into each of 5 healthy male Wistar rats (body weight of about 180 g) after 6 to 7 weeks of birth from the caudal vein by one shot method. The same procedure was carried out by using a solution of the sodium salt in a 1/15 M phosphoric acid buffer of pH of 7.0. After 30 min, 2 hours and 4 hours of the injection, the blood of the rate was collected from the cut carotid artery of the rat, and the collected blood was subjected to centrifugation for 15 min at 3000 rpm to obtain the three kinds of serum specimens (collected after 30 min, 2 hours and 4 hours after the injection).
Separately, flat culture plates were made by adding 0.05 % by weight of Escherichia coli IFO 12734 into Heart-infusion agar culture medium, and a penicillin cup of 8 mm in diameter was placed on the flat culture medium, and each of the serum specimen, each of the blood specimen, 1/15 M phosphoric acid buffer solution or a 50% acetone-phosphoric acid buffer solution was introduced into the cup. The thus prepared inoculant was left for 30 min to 1 hour at room temperature and incubated for a night at 37° C.
Then, the diameter of the growth-inhibition circle around the penicillin cup on each flat culture plate was determined, and according to the preliminarily prepared graph showing the relationship between the diameter of the growth-inhibition circle and the concentration of the sodium salt in the serum specimen, the blood specimen, 1/15 M phosphoric acid buffer solution and 50% acetone-phosphoric acid buffer solution, the concentration of the sodium salt in the serum specimen was obtained as: […]

CON=C(C(=O)N[C@@H]1C(=O)N2C(C(=O)OCOC(=O)C(C)(C)C)=C(CSc3nnc(N)s3)CS[C@H]12)c1csc(N)n1 [Example 3, pivaloyloxymethyl 7-beta-[2-(2-amino-4-thiazolyl) -2-methoxyiminoacetamido]-3-(2-amino-1,3,4,-thiadiazolyl-5-thiomethyl)-3-cepheme-4-carboxylate]
log10 value of the number of bacterial cells/g of feces, Lact. bifidus (Lactobacillus bifidus): 8.4 log10 of bacterial cells/g of
log10 value of the number of bacterial cells/g of feces, Bacterioides sp. (Bacterioides sp.): 8.2 log10 of bacterial cells/g of
Minimum growth-inhibition concentration (MIC) on E. coli IFO 12734 (E. coli IFO 12734): 12.5
Minimum growth-inhibition concentration (MIC) on Proteus vulgaris IAM 1025 [1]: 12.5
log10 value of the number of bacterial cells/g of feces, Streptococcus sp. (Streptococcus sp.): 7.0 log10 of bacterial cells/g of
Activity against Escherichia coli, in words (Escherichia coli [2]; after metabolized by the rat liver homogenate): active
Activity to Escherichia coli, in words (Escherichia coli [2]; compound itself, without S-9 mix): inactive
Ratio of diameter of growth-inhibiting circle to that of formula (I), sign ([3]; added with S-9 mix): +++ (67 to 100)
Ratio of diameter of growth-inhibiting circle to that of formula (I), sign ([3]; without addition of S-9 mix): ± (0 to 1)
log10 value of the number of bacterial cells/g of feces, E. coli (Escherichia coli [4]): 6.5 log10 of bacterial cells/g of
LD50 at 168 h ([5]; ip, read-out: LD50 (intraperitoneous)): > 10000 mg/kg
LD50 at 168 h ([5]; po, read-out: LD50 (oral)): > 10000 mg/kg
Autopsy findings (ICR-JCL mice): No noticeable information
Minimum growth-inhibition concentration (MIC) on Serratia marcescens IAM 1223 [6]: ≥ 100
Minimum growth-inhibition concentration (MIC) on Pseudomonas aeruginosa IAM 1514 [7]: ≥ 100
Minimum growth-inhibition concentration (MIC) on E. coli W 3636 (E. coli W 3636): 50
Anti-bacterial activity (MIC), in words (test bacterial species): not so small to verify the anti-bacterial activity
Rate of survival (Escherichia coli IFO): over 60%
Minimum growth-inhibition concentration (MIC) on Staphylococcus aureus IAM 1011 [8]: ≥ 100
log10 value of the number of bacterial cells/g of feces, Lactobacillus sp. (Lactobacillus sp.): 8.9 log10 of bacterial cells/g of
log10 value of the number of bacterial cells/g of feces, Pse. aeruginosa (Pseudomonas aeruginosa): < 3.0 log10 of bacterial cells/g of

CO/N=C(\C(=O)N[C@@H]1C(=O)N2C(C(=O)O)=C(COC(C)=O)CS[C@H]12)c1csc(N)n1 [CEFOTAX ®, reference compound]
Minimum growth-inhibition concentration (MIC) on E. coli IFO 12734 (E. coli IFO 12734): < 0.05
Minimum growth-inhibition concentration (MIC) on Proteus vulgaris IAM 1025 [1]: < 0.05
Minimum growth-inhibition concentration (MIC) on Serratia marcescens IAM 1223 [6]: 0.2
Minimum growth-inhibition concentration (MIC) on Pseudomonas aeruginosa IAM 1514 [7]: 50
Minimum growth-inhibition concentration (MIC) on E. coli W 3636 (E. coli W 3636): 0.1
remaining at 20 min [9]: 17%
Minimum growth-inhibition concentration (MIC) on Staphylococcus aureus IAM 1011 [8]: 1.56
concentration at 0.5 h ([10]; 30 min after injection): 7000 ng/mL
concentration at 2 h ([10]; 2 hours after injection): 2500 ng/mL
concentration at 4 h ([10]; 4 hours after injection): 400 ng/mL
